From ChEMBL document CHEMBL3046129, “Synthesis and pharmacological evaluation of N-(6-chlorobenzo[d]thiazol-2-yl)hydrazine carboxamide derivatives of benzothiazole” (Med Chem Res, 2013)

Assays:
Rattus norvegicus [1] = test: Potency index, Rattus norvegicus (rat)io of ibuprofen anti-inflammatory activity to compound anti-inflammatory activity in Wistar Rattus norvegicus (rat) at 70 mg/kg, po administered 1 hr prior to carrageenan-challenge measured after 4 hr by plethysmometer analysis; type: functional
Rattus norvegicus [2] = test: Hepatotoxicity in Wistar albino Rattus norvegicus (rat) assessed as hepatocyte with clearing of cytoplasm and compression of sinusoidal spaces at 210 mg/kg, po qd for 15 days measured after 24 hr of last dosage of drug by hematoxylin-eosin staining based light microscopy; type: toxicity, organism-based, Sinusoidal space; design: dose 210 mg/kg, route oral; details: hepatocytes
Mus musculus [3] = test: Analgesic activity in Swiss albino Mus musculus (mouse) assessed as time required for tail withdrawal at 70 mg/kg, po measured after 4 hr by tail immersion method; type: functional
Rattus norvegicus [4] = test: Hepatotoxicity in Wistar albino Rattus norvegicus (rat) assessed as serum total albumin level at 210 mg/kg, po qd for 15 days (reference value: 1.63 +/-0.02 g/dl); type: toxicity, organism-based; design: dose 210 mg/kg, route oral; details: in vivo, 360 h
Rattus norvegicus [5] = test: Effect on lipid peroxidation in Wistar Rattus norvegicus (rat) gastric mucosa assessed as malondialdehyde content at 210 mg/kg, po measured per 100 mg of tissue by UV spectrophotometric analysis (reference value: 3.26 +/-0.01 nmol); type: ADME, organism-based; design: dose 210 mg/kg, route oral; details: in vivo
Mus musculus [6] = test: Potency index, ratio of ibuprofen analgesic activity to compound analgesic in Swiss albino Mus musculus (mouse) at 70 mg/kg, po measured after 4 hr by tail immersion method; type: functional
Rattus norvegicus [7] = test: Hepatotoxicity in Wistar albino Rattus norvegicus (rat) assessed as serum alkaline phosphatase activity at 210 mg/kg, po qd for 15 days; type: toxicity, organism-based; design: dose 210 mg/kg, route oral; details: in vivo, 360 h
Rattus norvegicus [8] = test: Hepatotoxicity in Wistar albino Rattus norvegicus (rat) assessed as hepatocyte necrosis and degeneRattus norvegicus (rat)ion at 210 mg/kg, po qd for 15 days measured after 24 hr of last dosage of drug by hematoxylin-eosin staining based light microscopy; type: toxicity, organism-based; design: dose 210 mg/kg, route oral; details: hepatocytes
Rattus norvegicus [9] = test: Anti-inflammatory activity in Wistar Rattus norvegicus (rat) assessed as inhibition of carrageenan-induced paw edema at 70 mg/kg, po administered 1 hr prior to carrageenan-challenge measured after 4 hr by plethysmometer analysis; type: functional
Mus musculus [10] = test: Analgesic activity in Swiss albino Mus musculus (mouse) assessed as inhibition of pain at 70 mg/kg, po measured after 4 hr by tail immersion method; type: functional
Rattus norvegicus [11] = test: Hepatotoxicity in Wistar albino Rattus norvegicus (rat) assessed as serum glutamate pyruvate transaminase activity at 210 mg/kg, po qd for 15 days (reference value: 32.46 +/-0.76 units/ml); type: toxicity, organism-based; design: dose 210 mg/kg, route oral; details: in vivo, 360 h
Rattus norvegicus [12] = test: Anti-inflammatory activity in Wistar Rattus norvegicus (rat) assessed as inhibition of carrageenan-induced paw edema at 70 mg/kg, po administered 1 hr prior to carrageenan-challenge measured after 3 hr by plethysmometer analysis; type: functional
Rattus norvegicus [13] = test: Hepatotoxicity in Wistar albino Rattus norvegicus (rat) assessed as serum total protein level at 210 mg/kg, po qd for 15 days (reference value: 1.72 +/-0.02 g/dl); type: toxicity, organism-based; design: dose 210 mg/kg, route oral; details: in vivo, 360 h
Rattus norvegicus [14] = test: Gastrointestinal toxicity in Wistar Rattus norvegicus (rat) assessed as ulcerogenicity index at 210 mg/kg, po (reference value: 0 No unit); type: organism-based; design: dose 210 mg/kg, route oral; details: in vivo
Rattus norvegicus [15] = test: Hepatotoxicity in Wistar albino Rattus norvegicus (rat) assessed as serum glutamate oxaloacetate transaminase activity at 210 mg/kg, po qd for 15 days (reference value: 143.71 +/-1.10 units/ml); type: toxicity, organism-based; design: dose 210 mg/kg, route oral; details: in vivo, 360 h

| SMILES | Ratio (Rattus norvegicus [1]) | Activity (Rattus norvegicus [2]) | Time (Mus musculus [3]) [s] | Activity (Rattus norvegicus [4]) [g/dL] | Activity (Rattus norvegicus [5]) [nmol] | Ratio (Mus musculus [6]) | Activity (Rattus norvegicus [7]) | Activity (Rattus norvegicus [8]) | inhibition in vivo at 70 mg/kg (Rattus norvegicus [9]) [%] | inhibition in vivo at 70 mg/kg (Mus musculus [10]) [%] | Activity (Rattus norvegicus [11]) [U/ml] | inhibition in vivo at 70 mg/kg (Rattus norvegicus [12]) [%] | Activity (Rattus norvegicus [13]) [g/dL] | UI (Rattus norvegicus [14]) | Activity (Rattus norvegicus [15]) [U/ml] |
| --- | --- | --- | --- | --- | --- | --- | --- | --- | --- | --- | --- | --- | --- | --- | --- |
| Clc1ccc(-c2nnc(Nc3nc4ccc(Cl)cc4s3)o2)c(Cl)c1 | 1.05 | Toxic | 2.22 | 1.7 | 3.29 | 0.96 | Non-toxic | Non-toxic | 87.1 | 79 | 30.74 | 80 | 1.75 | 0.917 | 138.42 |
| Sc1nnc(Nc2nc3ccc(Cl)cc3s2)o1 | 0.84 |  | 2.24 |  | 9.04 | 0.88 |  |  | 69.8 | 72.3 |  | 61.7 |  | 2.166 |  |
| O=[N+]([O-])c1ccc(-c2nn3c(Nc4nc5ccc(Cl)cc5s4)nnc3s2)cc1 | 0.8 |  |  |  |  |  |  |  | 66.7 |  |  | 53.3 |  |  |  |
| Clc1ccc2nc(Nc3nnc4sc(-c5ccccc5Cl)nn34)sc2c1 | 0.61 |  |  |  |  |  |  |  | 50.8 |  |  | 41.7 |  |  |  |
| Clc1ccc2nc(Nc3nnc(-c4ccccc4)o3)sc2c1 | 1.06 |  | 1.45 |  | 4.47 | 0.74 |  |  | 88.3 | 61.1 |  | 78.8 |  | 1.667 |  |
| CC(C)Cc1ccc(C(C)C(=O)O)cc1 (stereo not given) [IBUPROFEN] |  |  | 2.6 | 1.71 | 7.51 |  | Toxic |  | 82.7 | 73.5 | 34.26 | 78.2 | 1.74 | 2.315 | 140.14 |
| Clc1ccc2nc(Nc3nnc(Oc4ccccc4)o3)sc2c1 | 1.07 |  | 1.9 |  | 9.1 | 0.63 |  |  | 88.8 | 52 |  | 74.2 |  | 1.083 |  |
| Clc1ccc2nc(Nc3nnc(-c4ccccc4Cl)o3)sc2c1 | 0.64 |  |  |  |  |  |  |  | 53.2 |  |  | 53 |  |  |  |
| CC(=O)Oc1ccccc1-c1nnc(Nc2nc3ccc(Cl)cc3s2)o1 | 0.61 |  |  |  |  |  |  |  | 50.8 |  |  | 31 |  |  |  |
| CC.O=[N+]([O-])c1ccc(-c2nnc(Nc3nc4ccc(Cl)cc4s3)o2)cc1 | 0.39 |  |  |  |  |  |  |  | 32.5 |  |  | 19.2 |  |  |  |
| Clc1ccc(-c2nn3c(Nc4nc5ccc(Cl)cc5s4)nnc3s2)c(Cl)c1 | 1.08 |  | 2.21 |  | 5.74 | 0.92 |  |  | 89.6 | 75.4 |  | 80 |  | 0.925 |  |
| Cc1ccccc1-c1nn2c(Nc3nc4ccc(Cl)cc4s3)nnc2s1 | 1.07 |  | 2.83 |  | 7.44 | 0.93 |  |  | 88.8 | 76.9 |  | 77.5 |  | 1.583 |  |
| Cc1ccccc1-c1nnc(Nc2nc3ccc(Cl)cc3s2)o1 | 0.45 |  |  |  |  |  |  |  | 37.7 |  |  | 23.9 |  |  |  |
| CC(=O)Oc1ccccc1-c1nn2c(Nc3nc4ccc(Cl)cc4s3)nnc2s1 | 0.24 |  |  |  |  |  |  |  | 20.6 |  |  | 10 |  |  |  |
| Clc1ccc2nc(Nc3nnc4sc(-c5ccccc5)nn34)sc2c1 | 0.7 |  |  |  |  |  |  |  | 57.9 |  |  | 48.3 |  |  |  |
| Clc1ccc2nc(Nc3nnc4sc(Oc5ccccc5)nn34)sc2c1 | 1.08 | Toxic | 2.17 | 1.74 | 3.04 | 0.91 | Non-toxic | Non-toxic | 89.7 | 75 | 28.33 | 78.3 | 1.79 | 0.666 | 131.18 |
